{"source": "paper PMC10151178", "about": "(Brain, 2023)", "origin": "cited, not measured here", "system": "IIH patients", "source_text": "The minimal clinically important change in ICP in those with IIH has yet to be determined.[38] […] In this trial ...", "data": [{"smiles": "CC(=O)Nc1nnc(S(N)(=O)=O)s1", "note": "[acetazolamide]", "values": [{"measurement": "Magnitude of treatment effect on ICP between trial arms", "setting": "acetazolamide and diet", "value": 5.9, "unit": "cmCSF"}, {"measurement": "Patients who withdrew due to adverse effects", "setting": "over a 3-month period, previous randomized controlled trial", "value": 48, "unit": "%"}]}]}
